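Protocol summary: plate cells (96-well), add compound at 5 concentrations, incubate 48 h, interpolate endpoints linearly. TGI denotes the concentration required for complete inhibition of growth.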
Key:
Assay in all cases: growth of human tumour cells (NCI), 48 h
786-0 renal = tested on: 786-0 renal
A498 renal = tested on: A498 renal
A549 NSCLC = tested on: A549 NSCLC
ACHN renal = tested on: ACHN renal
BT-549 breast = tested on: BT-549 breast
CAKI-1 renal = tested on: CAKI-1 renal
CCRF-CEM leukemia = tested on: CCRF-CEM leukemia
COLO 205 colon = tested on: COLO 205 colon
DU-145 prostate = tested on: DU-145 prostate
EKVX NSCLC = tested on: EKVX NSCLC
HCC-2998 colon = tested on: HCC-2998 colon
HCT-116 colon = tested on: HCT-116 colon
HCT-15 colon = tested on: HCT-15 colon
HL-60(TB) leukemia = tested on: HL-60(TB) leukemia
HOP-62 NSCLC = tested on: HOP-62 NSCLC
HOP-92 NSCLC = tested on: HOP-92 NSCLC
HS 578T breast = tested on: HS 578T breast
HT29 colon = tested on: HT29 colon
IGROV1 ovarian = tested on: IGROV1 ovarian
K-562 leukemia = tested on: K-562 leukemia
KM12 colon = tested on: KM12 colon
LOX IMVI melanoma = tested on: LOX IMVI melanoma
M14 melanoma = tested on: M14 melanoma
MALME-3M melanoma = tested on: MALME-3M melanoma
MCF7 breast = tested on: MCF7 breast
MDA-MB-231 breast = tested on: MDA-MB-231 breast
MDA-MB-435 = tested on: MDA-MB-435
MDA-N = tested on: MDA-N
MOLT-4 leukemia = tested on: MOLT-4 leukemia
NCI-H226 lung = tested on: NCI-H226 lung
NCI-H23 lung = tested on: NCI-H23 lung
NCI-H460 lung = tested on: NCI-H460 lung
NCI-H522 lung = tested on: NCI-H522 lung
NCI/ADR-RES ovarian = tested on: NCI/ADR-RES ovarian
OVCAR-3 ovarian = tested on: OVCAR-3 ovarian
OVCAR-4 ovarian = tested on: OVCAR-4 ovarian
OVCAR-5 ovarian = tested on: OVCAR-5 ovarian
OVCAR-8 ovarian = tested on: OVCAR-8 ovarian
PC-3 prostate = tested on: PC-3 prostate
RPMI-8226 leukemia = tested on: RPMI-8226 leukemia
RXF 393 renal = tested on: RXF 393 renal
SF-268 CNS = tested on: SF-268 CNS
SF-295 CNS = tested on: SF-295 CNS
SF-539 CNS = tested on: SF-539 CNS
SK-MEL-2 melanoma = tested on: SK-MEL-2 melanoma
SK-MEL-28 melanoma = tested on: SK-MEL-28 melanoma
SK-MEL-5 melanoma = tested on: SK-MEL-5 melanoma
SK-OV-3 ovarian = tested on: SK-OV-3 ovarian
SN12C renal = tested on: SN12C renal
SNB-19 CNS = tested on: SNB-19 CNS
SR leukemia = tested on: SR leukemia
SW-620 colon = tested on: SW-620 colon
T-47D breast = tested on: T-47D breast
TK-10 renal = tested on: TK-10 renal
U251 CNS = tested on: U251 CNS
UACC-257 melanoma = tested on: UACC-257 melanoma
UACC-62 melanoma = tested on: UACC-62 melanoma
UO-31 renal = tested on: UO-31 renal
DLD-1 colon = tested on: DLD-1 colon
DMS 273 small cell lung = tested on: DMS 273 small cell lung
HOP-18 NSCLC = tested on: HOP-18 NSCLC
KM20L2 colon = tested on: KM20L2 colon
LXFL 529 NSCLC = tested on: LXFL 529 NSCLC
M19-MEL melanoma = tested on: M19-MEL melanoma
SNB-75 CNS = tested on: SNB-75 CNS

Measured: TGI

Cc1cc(C)n2nc3nc(N)c(C#N)c(-c4ccccc4)c3c2n1
not listed: DLD-1 colon | DMS 273 small cell lung | HOP-18 NSCLC | KM20L2 colon | LXFL 529 NSCLC | M19-MEL melanoma | SNB-75 CNS
> 100 µM: all other assays above

Cc1ccc(S(=O)(=O)N(CC(=O)O)c2ccccc2)cc1
not listed: BT-549 breast | DU-145 prostate | HCT-116 colon | HOP-62 NSCLC | HS 578T breast | MCF7 breast | MDA-MB-231 breast | MDA-MB-435 | MDA-N | NCI-H226 lung | NCI/ADR-RES ovarian | PC-3 prostate | SR leukemia | T-47D breast
> 100 µM: all other assays above
